Values joined by “and” are separate entries in the source; they are usually repeats but may differ in a detail not shown here. Identical values can stand only once. Like-named read-outs stand apart in the source and are kept apart here.
Test: Phase 1 single ascending dose (SAD) pharmacokinetics incl. food effect
Assay type: in vivo, human
Conditions: for Tmax (h) / Tmax: N 6; for AUC(0-t) / AUC(0-inf) / Cmax / half-life / Tmax: human, plasma; for AUC(0-t) / AUC(0-inf) / Cmax / half-life: oral; for Tmax: po
Method: A randomized, double-blind, placebo-controlled Phase 1 trial (ClinicalTrials.gov identifier: NCT05484414) (02/08/2022) was conducted to assess the safety, tolerability, food effect, pharmacokinetics (PK), and pharmacodynamics (PD) of single and multiple ascending doses of SRP-001 (Quotient Sciences, Miami FL USA; Fig. 3h - k and Methods). The trial was conducted in accordance with the International Council for Harmonisation of Technical Requirements for Pharmaceuticals for Human Use (ICH), Guideline for GCP: Consolidated Guidance (E6), attained Institutional Review Board approval, and all applicable regulatory requirements for Phase 1, First in Human clinical trials. Safety measurements and plasma samples to determine PK parameters were collected throughout the study for all subjects and reviewed by the Safety Review Committee. PK stopping criteria were established to assure that systemic exposure to SRP-001 was less than or equal to the systemic exposure achieved at the NOAEL doses in the 28-day repeat-dose toxicology studies in the rat and dog. The trial’s Safety Advisory Committee has approved the publication of the Phase 1 results.
SRP-001 was administered as an oral nanosuspension to 56 healthy volunteers across five Single Ascending Dose (SAD) and two Multiple Ascending Dose (MAD) cohorts, with 42 subjects receiving SRP-001 and 14 receiving a placebo.
A two-part randomized, double-blind, placebo-controlled Phase 1 trial was conducted to assess the safety, tolerability, PK and PD of SRP-001 ascending doses (Quotient Sciences, Miami, FL, USA). The study was conducted in accordance with the International Council for Harmonisation of Technical Requirements for Pharmaceuticals for Human Use (ICH), Guideline for GCP: Consolidated Guidance (E6), and applicable regulatory requirements(s) including clinical research guidelines established by the Basic Principles defined in the U.S. 21 CFR Parts 50, 56, and 312 and the principles enunciated in the Declaration of Helsinki (revised version Fortaleza 2013). The clinical protocol and informed consent form were reviewed and approved by an Institutional Review Board (IRB; Advarra IRB, 6100 Merriweather Drive, Suite 600, Columbia, MD 21,044; Quotient Protocol No. SRP-101 and Quotient Sciences Study No. QSC205130; Quotient Sciences Miami, 3898 NW 7th Street, Miami, FL 33,126.). The study comprises a SAD (Part 1) assessment that includes a food effect assessment that contributes data to inform a subsequent MAD (Part 2) dose-ranging study. Safety measurements were collected throughout the study for all subjects. Blood samples were collected to determine the PK parameters of SRP-001 (ClinicalTrials.gov identifier: NCT05484414) (02/08/2022).
NHVs were dosed in the fasted state. The calorie/fat content of meals was not required to be controlled. Subjects were provided with a standardized menu. Subjects were provided with a light snack and then fasted from all food and drink (except water) for a minimum of 10 h on the day prior to dosing until approximately 4 h post-dose, at which time lunch was provided. An evening meal was provided at approximately 10 h post-dose/post-morning dose and an evening snack at approximately 14 h post-morning dose. Food effect was studied in the cohort receiving 900 mg SRP-001 in the fed state. A standard high-fat breakfast was given 30 min before dosing. On Day -1, these NHVs were provided with a light snack and fasted from all food and drink (except water) until the following morning, when they were provided with a standard high-fat breakfast. The breakfast had to be consumed over a maximum period of 25 min, with dosing occurring 30 min after the start of breakfast. Subjects were encouraged to eat their meal evenly over the 25 min period. It was acknowledged that some subjects took less time to eat, but dosing still occurred 30 min after the start of breakfast. Subjects had to consume at least 90% to be eligible for dosing. […]

[1] = 300 mg, Cohort 1, Regimen A, Fasted, geometric mean (geometric CV%)
[2] = 600 mg, Cohort 2, Regimen B, Fasted, geometric mean (geometric CV%)
[3] = 900 mg, Cohort 3, Regimen C, Fasted, geometric mean (geometric CV%)
[4] = 900 mg, Cohort 3, Regimen D, Fed, geometric mean (geometric CV%)
[5] = 2000 mg, Cohort 4, Regimen E, Fasted, geometric mean (geometric CV%)
[6] = relative bioavailability, Cohort 4, Regimen E, text b207 under 900 mg fed state

## CCN(CC)C(=O)c1ccccc1S(=O)(=O)NCC(=O)Nc1ccc(O)cc1 [SRP-001, N,N-diethyl-2-[[2-(4-hydroxyanilino)-2-oxo-ethyl]sulfamoyl]benzamide]
2000 mg, fasted
  Geometric mean AUC(0–24) as share of the exposure limits defined in the protocol: 31%
  Geometric mean Cmax as share of the exposure limits defined in the protocol: 34%
300 to 2000 mg
  Dose proportionality of geometric mean Cmax and AUC(0-∞): dose-proportional or super-proportional increase
Cohort 1, Regimen A, 300 mg, Fasted, geometric mean (geometric CV%)
  T1/2 (h): 2.38 (65.9) h
Cohort 2, Regimen B, 600 mg oral suspension, Fasted
  Tmax (h): 1 (1.00–2.00) h
Cohort 2, Regimen B, 600 mg, Fasted, geometric mean (geometric CV%)
  T1/2 (h): 5.04 (107.8) h
Cohort 3, Period 2: Regimen D, 900 mg oral suspension, Fed
  Tmax (h): 1 (1.00–8.00) h
Cohort 3, Regimen C, 900 mg, Fasted, geometric mean (geometric CV%)
  T1/2 (h): 3.26 (62.1) h
Cohort 3, Regimen D, 900 mg, Fed, geometric mean (geometric CV%)
  T1/2 (h): 3.79 (74.5) h
Cohort 4, Regimen E, 2000 mg oral suspension, Fasted
  Tmax (h): 1 (1.00–2.00) h
Cohort 4, Regimen E, 2000 mg, Fasted, geometric mean (geometric CV%)
  T1/2 (h): 5.96 (65.9) h
Dose from 300 to 600 mg
  Increase of geometric mean AUC(0–24): 3.5 fold
  Increase of geometric mean Cmax: 2.6 fold
Dose from 600 to 900 mg
  Increase of geometric mean AUC(0–24): 1.2 fold
  Increase of geometric mean Cmax: 1.6 fold
Dose from 900 to 2000 mg (2.2-fold increase in dose)
  Increase of geometric mean Cmax: 1.7 fold
300 mg, Cohort 1, Regimen A, 300 mg, Fasted, geometric mean (geometric CV%), read-out: AUC0-24
  AUC(0-t): 1620 ng·h/mL
300 mg, Cohort 1, Regimen A, 300 mg, Fasted, geometric mean (geometric CV%), read-out: AUC0-last
  AUC(0-t): 1320 ng·h/mL
[1]
  AUC(0-inf): 1630 ng·h/mL
  Cmax: 665 ng/mL
  half-life: 2.4 h
300 mg, fasted, geometric mean, read-out: AUC(0–48)
  AUC(0-t): 1630 ng·h/mL
600 mg, Cohort 2, Regimen B, 600 mg, Fasted, geometric mean (geometric CV%), read-out: AUC0-24
  AUC(0-t): 5660 ng·h/mL
600 mg, Cohort 2, Regimen B, 600 mg, Fasted, geometric mean (geometric CV%), read-out: AUC0-last
  AUC(0-t): 4940 ng·h/mL
[2]
  AUC(0-inf): 5840 ng·h/mL
  Cmax: 1740 ng/mL
  half-life: 5 h
900 mg, Cohort 3, Regimen C, 900 mg, Fasted, geometric mean (geometric CV%), read-out: AUC0-24
  AUC(0-t): 6870 ng·h/mL
900 mg, Cohort 3, Regimen C, 900 mg, Fasted, geometric mean (geometric CV%), read-out: AUC0-last
  AUC(0-t): 6810 ng·h/mL
[3]
  AUC(0-inf): 6970 ng·h/mL
  Cmax: 2700 ng/mL
  half-life: 3.3 h
900 mg, Cohort 3, Regimen D, 900 mg, Fed, geometric mean (geometric CV%), read-out: AUC0-24
  AUC(0-t): 6250 ng·h/mL
900 mg, Cohort 3, Regimen D, 900 mg, Fed, geometric mean (geometric CV%), read-out: AUC0-last
  AUC(0-t): 6130 ng·h/mL
[4]
  AUC(0-inf): 5910 ng·h/mL
  Cmax: 1200 ng/mL
  half-life: 3.8 h
2000 mg, Cohort 4, Regimen E, 2000 mg, Fasted, geometric mean (geometric CV%), read-out: AUC0-24
  AUC(0-t): 18900 ng·h/mL
2000 mg, Cohort 4, Regimen E, 2000 mg, Fasted, geometric mean (geometric CV%), read-out: AUC0-last
  AUC(0-t): 19100 ng·h/mL
[5]
  AUC(0-inf): 19600 ng·h/mL
  Cmax: 4590 ng/mL
  half-life: 6 h
300 mg, Cohort 1, Regimen A, 300 mg oral suspension, Fasted
  Tmax: 1 h
600 mg, Cohort 2, Regimen B, 600 mg oral suspension, Fasted
  Tmax: 1 to 2 h
900 mg, Cohort 3, Period 1: Regimen C, 900 mg oral suspension, Fasted
  Tmax: 1 h
900 mg, Cohort 3, Period 2: Regimen D, 900 mg oral suspension, Fed
  Tmax: 1 to 8 h
2000 mg, Cohort 4, Regimen E, 2000 mg oral suspension, Fasted
  Tmax: 1 to 2 h
[6]
  Frel AUC(0- last) (%): 98.4% and 98.4a (16.3) %
  Frel AUC(0-inf) (%): 101% and 101a (20.3) %
  Frel AUC(0–24) (%): 99.2% and 99.2a (19.0) %
  Frel Cmax (%): 48.4% and 48.4a (21.9) %
